What all share (type): binding
Experiment [1] deals with T1, Siglec-9 V-set domain (Siglec-9d1) (Homo sapiens, UniProt Q9Y336, C36S). As to the kind of experiment: 1H-15N HSQC NMR titration.
A further experiment deals with mVENUS. Briefly: STD-NMR control experiment with mVENUS.
In experiment [2] the target is T1, Siglec-9 V-set domain (Siglec-9d1). As to the kind of experiment: Isothermal titration calorimetry. For orientation: ITC needs no label: the signal is the heat of the interaction.

T1 sequence (Q9Y336 18-144 C36S): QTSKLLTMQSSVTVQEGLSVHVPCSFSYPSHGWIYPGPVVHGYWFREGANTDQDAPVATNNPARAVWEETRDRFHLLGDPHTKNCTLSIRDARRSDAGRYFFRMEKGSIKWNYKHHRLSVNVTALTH

Regarding `CC(=O)N[C@H]1[C@H]([C@H](O)[C@H](O)CO)O[C@@](O[C@H]2[C@@H](O)[C@@H](CO)O[C@@H](O[C@@H]([C@H](O[C@@H]3O[C@@H](C)[C@@H](O)[C@@H](O)[C@@H]3O)[C@H](C=O)NC(C)=O)[C@H](O)CO)[C@@H]2O)(C(=O)O)C[C@@H]1O` [sLeX, Neu5Ac(α2-3)Gal(β1-4)[Fuc(1-3)]GlcNAc], binding in experiment [1] was characterised by a dissociation constant (Kd) of 499 ± 74 µM. For the same compound, the “STD NMR signals on binding to mVENUS” value in the experiment on mVENUS is recorded as “did not produce any STD NMR signals”.
“9N-[5-(2-methylthiazol-4-yl)thiophene sulfonamide]-Neu5Acα(2–6)Galβ(1–4)GlcNAc [^MTTSNeu5Ac]” showed a ΔH in experiment [2] (ITC, Siglec-9d1) of -10.2 kcal/mol. Also, the “fold higher affinity for Siglec-9 than the glycan with unsubstituted Neu5Ac” value in experiment [2] (comparison with the unsubstituted glycan) was above 20 fold. Further, the “fold higher affinity toward Siglec-9 than BTCNeu5Ac” value in experiment [2] (from ITC KD values) is on record as “approximately 2 fold”.

A word on the Kd: it is the concentration at which binding is half-saturated. Low readings indicate higher affinity, high ones lower affinity.

Source of the values: article PMC10877568 (ACS Chemical Biology, 2024).
